Laboratory results published in patent EP3419977B1, “PLATINUM(II) RING-FUSED CHLORINS, METHODS AND USES THEREOF” (Universidade de Coimbra, priority 2016, dated 2017).
Read-outs that look alike come from different tables or passages of the source.

Assays:
[1] = in toluene, used as standard; cited from earlier work
[2] = test system: human melanocytic melanoma cells (A375); assay: Photocytotoxicity (photodynamic treatment, MTT assay); format: cell-based; conditions: 24 h incubation, irradiated 7.5 mW/cm^2 to 10 J, red filter (cut off < 560 nm)
Experimental: In an embodiment the photodynamic activity were as following: For each experiment, A375 cells were plated and kept in the incubator overnight, in order to allow the attachment of the cells. The initial formulation of the sensitizers consisted of a 1 mg/mL solution in DMSO and the desired concentrations were achieved by successive dilutions, being always administered to the cells at 1% DMSO. After sensitizer administration (from 1 nM to 10 µM), cells were incubated for 24 h. Controls were performed on every test. Cells were washed with PBS and new drug-free medium was added. Each plate was irradiated with a fluence rate of 7.5 mW/cm^2 until a total of 10 J was reached, using a light source equipped with a red filter (cut off < 560 nm).

[3] = test system: A375 cells; conditions: absence of light
[4] = in water, used as standard for phosphorescence quantum yields; cited from earlier work

Row | Compound | IC50 [2] [µM] | further results
1 | C1=Cc2nc1c(-c1ccccc1)c1ccc([nH]1)c(-c1ccccc1)c1nc(c(-c3ccccc3)c3ccc([nH]3)c2-c2ccccc2)C=C1 [TPP, meso-tetraphenylporphyrin] | – | φF [1]: 0.11
2 | platinum (II) 2,3-dihydroxymethyl-4,5,6,7-tetrahydropyrazolo[1,5-α]pyridine-fused chlorin [Chlorin 8] | 0.144 | IC50 [3]: 22.3 µM
3 | Photofrin@ | 0.156 | –
4 | [Ru+2].c1ccc(-c2ccccn2)nc1.c1ccc(-c2ccccn2)nc1.c1ccc(-c2ccccn2)nc1 [tris(2,2'-bipyridyl)ruthenium (II)] | – | φF [4]: 0.042
5 | platinum (II) dimethyl 4,5,6,7-tetrahydropyrazolo[1,5-α]pyridine-2,3-dicarboxylate-fused chlorin [Chlorin 7b] | > 5 | –
